Experimental data published in patent US20250257075A1, “MACROCYCLIC INHIBITORS OF KRAS FOR THE TREATMENT OF CANCER” (Hoffmann-La Roche Inc., priority 2022, published 2025).

Legend:
Format in all cases: cell-based
Conditions in all cases: Homo sapiens, MIA PaCa-2, 72 h, 3 d, CellTiter-Glo
[1] = test system: Miapaca-2 mutant cells KRAS G12C + S65W; assay: Stable KRAS mutant cell line viability assay (CTG), G12C + S65W
Description: (§1) The aim of the study was to determine the potency and efficacy of compounds for cell proliferation using CellTiter-Glo® (CTG) Luminescent Cell Viability Assay (Promega Corp., Madison, WI). We cloned […] KRAS^G12C variant sequences with secondary mutations (V8A, V9Y, S17E, T58I, A59T, S65W, R68S, D69P, M72I, D92R, H95N, Y96D, Q99F, Q99W, Y96H, and F156L) into the Miapaca-2. Totally 14 stable Miapaca-2 mutant cell lines were established through lentivirus infection. For the cell viability assay, cells were dosed with compounds in a 9-point dose-response using a 4 fold dilution series at a top dose of 10 μM. KRAS mutant cells were maintained in DMEM+10% FBS+2.5% HI Horse serum+1% PS+1 μg/mL Puromycin and seeded into 96-well plates at 800-1,500 cells per well 24 h before compound addition and then incubated with compound for 3 d before assaying viability (CellTiter-Glo, Promega). Assays were performed in biological duplicates. Nonlinear regression curves were fitted using Xfit. IC50 (absolute IC50) is the dose at which the estimated viability is 50% relative to untreated wells.

[2] = test system: Miapaca-2 mutant cells KRAS G12C + F156L; assay: Stable KRAS mutant cell line viability assay (CTG), G12C + F156L
Description: as §1

[3] = test system: Miapaca-2 mutant cells KRAS G12C + D92R; assay: Stable KRAS mutant cell line viability assay (CTG), G12C + D92R
Description: as §1

[4] = test system: Miapaca-2 mutant cells KRAS G12C + D60P; assay: Stable KRAS mutant cell line viability assay (CTG), G12C + D60P
[5] = test system: Miapaca-2 mutant cells KRAS G12C + T58I; assay: Stable KRAS mutant cell line viability assay (CTG), G12C + T58I
Description: as §1

[6] = test system: Miapaca-2 mutant cells KRAS G12C + Q99W; assay: Stable KRAS mutant cell line viability assay (CTG), G12C + Q99W
Description: as §1

[7] = test system: Miapaca-2 mutant cells KRAS G12C + R68S; assay: Stable KRAS mutant cell line viability assay (CTG), G12C + R68S
Description: as §1

[8] = test system: Miapaca-2 mutant cells KRAS G12C + H95N; assay: Stable KRAS mutant cell line viability assay (CTG), G12C + H95N
Description: as §1

[9] = test system: Miapaca-2 mutant cells KRAS G12C + M72I; assay: Stable KRAS mutant cell line viability assay (CTG), G12C + M72I
Description: as §1

[10] = test system: Miapaca-2 mutant cells KRAS G12C + V8A; assay: Stable KRAS mutant cell line viability assay (CTG), G12C + V8A
Description: as §1

[11] = test system: Miapaca-2 mutant cells KRAS G12C + V9Y; assay: Stable KRAS mutant cell line viability assay (CTG), G12C + V9Y
Description: as §1

[12] = test system: Miapaca-2 mutant cells KRAS G12C + S17E; assay: Stable KRAS mutant cell line viability assay (CTG), G12C + S17E
Description: as §1

[13] = test system: Miapaca-2 mutant cells KRAS G12C + A59T; assay: Stable KRAS mutant cell line viability assay (CTG), G12C + A59T
Description: as §1

[14] = test system: Miapaca-2 mutant cells KRAS G12C + Y96D; assay: Stable KRAS mutant cell line viability assay (CTG), G12C + Y96D
Description: as §1

IC50 [1]: 0.003 µM
IC50 [2]: 0.003 µM
IC50 [3]: 0.002 µM
IC50 [4]: 0.097 µM
IC50 [5]: 0.003 µM
IC50 [6]: 0.003 µM
IC50 [7]: 0.022 µM
IC50 [8]: 0.003 µM
IC50 [9]: 0.001 µM
IC50 [10]: 0.001 µM
IC50 [11]: 0.003 µM
IC50 [12]: 0.003 µM
IC50 [13]: 0.032 µM
IC50 [14]: 0.006 µM
Compound: CCn1c(-c2cc(N3CCOCC3)cnc2[C@H](C)OC)c2c3cc(c(F)cc31)-c1csc(n1)C[C@H](NC(=O)[C@H](C(C)C)N(C)C(=O)[C@H]1C[C@@H](C#CC(F)(F)F)C1)C(=O)N1CCC[C@H](N1)C(=O)OCC(C)(C)C2 (atropisomer, axis not shown; (M)) [Example 11, cis-N-[(1S)-1-[[(7S,13S)-21-ethyl-24-fluoro-(20M)-20-[2-[(1S)-1-methoxyethyl]-5-morpholino-3-pyridyl]-17,17-dimethyl-8,14-dioxo-15-oxa-4-thia-9,21,27,28-tetrazapentacyclo[17.5.2.1^2,5.1^9,13.0^22,26]octacosa-1(25),2,5(28),19,22(26),23-hexaen-7-yl]carbamoyl]-2-methyl-propyl]-N-methyl-3-(3,3,3-trifluoroprop-1-ynyl)cyclobutanecarboxamide]
